Experiments:
[1] = tested on: human intestine microsomes; experiment: Metabolic stability in human intestine microsomes (UDPGA, UGT activity only); format: in vitro ADME
Procedure: The objective of this study was to investigate the stability of the test compound, CBG, in the presence of intestinal microsomes that only have UGT activity and no CYP activity.
Test compound (1 μM) was incubated with pooled intestinal microsomes at 6 time points over the course of a 60 min assay and the test compound is analyzed by LC-MS/MS.
The final incubation volume is 500 μL. A minus cofactor control incubation was included for each compound tested where 0.1 M Tris, 5 mM MgCl2 buffer pH 7.4 is added instead of UDPGA (minus UDPGA). Two control compounds were included. All incubations were performed singularly for each test compound.
Each compound was incubated for 0, 5, 10, 20, 40 and 60 min. The control (minus UDPGA) was incubated for 60 min only. The reactions were stopped by transferring incubate into acetonitrile at the appropriate time points, in a 1:3 ratio. The termination plates were centrifuged at 3,000 rpm for 20 min at 4° C. to precipitate the protein.
Following protein precipitation, the sample supernatants were combined in cassettes of up to 4 compounds, internal standard was added and samples analysed using Cyprotex generic LC-MS/MS conditions.
From a plot of ln peak area ratio (compound peak area/internal standard peak area) against time, the gradient of the line was determined. Subsequently, half-life and intrinsic clearance were calculated using the equations below: […]

[2] = Hepatocyte stability and metabolite profiling; format: in vitro ADME; conditions: cryopreserved hepatocytes in suspension; Mouse cryopreserved hepatocytes
Procedure: (§1) The objective of this study was to investigate the stability of the test compound, CBG, in human, rat, dog, mouse, monkey and minipig cryopreserved hepatocytes. Follow-on metabolite profiling was performed.
(§2) CBG was incubated up to 2 hr with cryopreserved hepatocytes. Cryopreserved hepatocytes in suspension were added to test compound in supplemented media following pre-incubation to initiate the reaction and the reactions were stopped by organic solvent at the appropriate time points. The termination plates were centrifuged and sample supernatants were analysed using Cyprotex generic LC MS/MS conditions to generate intrinsic clearance values for CBG. Two control compounds for each species were included in the assay and if the values for these compounds were not within the specified limits the results were rejected and the experiment repeated.
Following the hepatocyte stability assay the samples were 59tilized for metabolite profiling using suitable high-resolution LC-MS/MS conditions. The 40 and 60 minute human samples, 20 and 120 minute rat samples, 10 and 20 minute dog and monkey samples, 20 and 60 minute mouse samples, and 40 and 120 minute minipig samples were compared against the 0 minute control sample to establish which and how many metabolites were formed. […]
The areas and percentages reported for the parent and metabolites were calculated using the XIC data. […]

[3] = Hepatocyte stability and metabolite profiling; format: in vitro ADME, minipig; conditions: cryopreserved hepatocytes in suspension; Minipig cryopreserved hepatocytes
Procedure: as §1, §2
(§3) Following the hepatocyte stability assay the samples were 59tilized for metabolite profiling using suitable high-resolution LC-MS/MS conditions. The 40 and 60 minute human samples, 20 and 120 minute rat samples, 10 and 20 minute dog and monkey samples, 20 and 60 minute mouse samples, and 40 and 120 minute minipig samples were compared against the 0 minute control sample to establish which and how many metabolites were formed. […] No further analysis was carried out with the mouse species.
(§4) The areas and percentages reported for the parent and metabolites were calculated using the XIC data. Metabolite observed at greater than 1% of the total of drug related material are reported. […] For accuracy, a ppm error of less than 5 is desirable; when the response for a metabolite observed is low the ppm error maybe greater than 5. Where a metabolite has been referred to as a potential oxidation it can refer to a potential hydroxylation, epoxidation or oxide formation. Representative collision induced dissociation (CID) mass spectra were obtained for the metabolites found.

[4] = tested on: cryopreserved hepatocytes; experiment: Hepatocyte stability and metabolite profiling; format: in vitro ADME, minipig; conditions: minipig hepatocyte samples
Procedure: as §1, §2, §3, §4

In the case of `CCCCCc1cc(O)c(C/C=C(\C)CCC=C(C)C)c(O)c1` [CBG, cannabigerol], the “appearance of CBG-glucoronide (in words)” value ([1]; CBG incubated with human intestine microsomes) is reported as “appeared rapidly”, the “Comments: detectability of test compound” value ([1]; by 10 minutes) is reported as “Test compound not detectable” and the “disappearance of parent compound (in words)” value ([1]; incubated with human intestine microsomes) is reported as “disappeared rapidly”. The half-life [2] was 42.2 min, the hepatocyte CLint [2] was 32.8 µL/min/1e6 cells and the half-life [3] was 42.7 min. For the same molecule, the hepatocyte CLint [3] was 32.5 µL/min/1e6 cells and the “number of metabolites observed” value [4] was “four”.

— US11992497B2 (priority 2021, dated 2024)
